Data published in patent US20020151712A1, “3-pyrrolidinyloxy-3'-pyridyl ether compounds useful for controlling chemical synaptic transmission” (priority 1999, published 2002).
Where a name gives a salt, the structure may show the parent alone.

biological target: neuronal nicotinic acetylcholine receptors (Rattus norvegicus, UniProt P09483+P12390); experiment: [3H]-cytisine binding to neuronal nicotinic acetylcholine receptors, crude synaptic membranes from whole rat brain; conditions: [3H]-CYT 1.25 nM, 60 minutes at 4° C., Ki from IC50 by Cheng and Prusoff correction
Sequence (P09483 31-630): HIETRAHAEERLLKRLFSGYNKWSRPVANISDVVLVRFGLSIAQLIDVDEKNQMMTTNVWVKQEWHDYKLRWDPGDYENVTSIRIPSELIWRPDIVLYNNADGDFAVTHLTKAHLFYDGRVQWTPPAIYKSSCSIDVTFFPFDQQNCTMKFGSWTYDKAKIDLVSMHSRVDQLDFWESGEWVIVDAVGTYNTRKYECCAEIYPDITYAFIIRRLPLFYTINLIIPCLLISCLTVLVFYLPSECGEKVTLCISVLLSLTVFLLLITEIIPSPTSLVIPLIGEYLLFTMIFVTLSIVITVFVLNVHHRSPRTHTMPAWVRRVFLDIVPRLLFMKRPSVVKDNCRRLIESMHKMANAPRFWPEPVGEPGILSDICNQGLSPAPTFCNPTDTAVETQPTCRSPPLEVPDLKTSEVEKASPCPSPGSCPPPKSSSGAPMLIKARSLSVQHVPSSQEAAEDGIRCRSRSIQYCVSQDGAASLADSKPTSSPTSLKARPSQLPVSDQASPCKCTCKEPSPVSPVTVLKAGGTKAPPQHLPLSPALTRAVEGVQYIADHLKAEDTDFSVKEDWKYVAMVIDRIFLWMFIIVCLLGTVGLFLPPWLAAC
Sequence (P12390 25-500): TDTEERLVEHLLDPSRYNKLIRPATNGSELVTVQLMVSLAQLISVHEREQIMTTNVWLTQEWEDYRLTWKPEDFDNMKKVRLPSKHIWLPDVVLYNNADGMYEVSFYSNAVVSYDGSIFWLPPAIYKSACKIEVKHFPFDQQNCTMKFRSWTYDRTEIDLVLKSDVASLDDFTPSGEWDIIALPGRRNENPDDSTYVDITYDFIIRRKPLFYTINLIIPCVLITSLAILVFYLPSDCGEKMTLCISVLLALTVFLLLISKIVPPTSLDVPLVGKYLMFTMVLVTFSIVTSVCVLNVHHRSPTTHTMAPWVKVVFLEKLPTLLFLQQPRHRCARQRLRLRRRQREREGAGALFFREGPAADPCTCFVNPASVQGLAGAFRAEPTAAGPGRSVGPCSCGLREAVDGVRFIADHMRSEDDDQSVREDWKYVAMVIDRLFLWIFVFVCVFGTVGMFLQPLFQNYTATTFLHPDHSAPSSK
Experimental: The in vitro protocols for determination of nicotinic acetylcholine channel receptor binding potencies of ligands was determined as follows.
Binding of [^3H]-cytisine ([^3H]-CYT) to neuronal nicotinic acetylcholine receptors was accomplished using crude synaptic membrane preparations from whole rat brain (Pabreza et al., Molecular Pharmacol., 1990, v. 39, p. 9). Washed membranes were stored at −80° C. prior to use. Frozen aliquots were slowly thawed and resuspended in 20 volumes of buffer (containing: 120 mM NaCl, 5 mM KCl, 2 mM MgCl2, 2 mM CaCl2 and 50 mM Tris-Cl, pH 7.4 at 4° C.). After centrifuging at 20,000×g for 15 minutes, the pellets were resuspended in 30 volumes of buffer.
The test compounds were dissolved in water to make 10 mM stock solutions. […]
Homogenate (containing 125-150 μg protein) was added to triplicate tubes containing the range of concentrations of test compound described above and [^3H]-CYT (1.25 nM) in a final volume of 500 μl. […] The filters are counted in 4 mL of Ecolume® (ICN). Nonspecific binding was determined in the presence of 10 μM (−)-nicotine and values were expressed as a percentage of total binding. IC50 values were determined with a four-parameter non-linear regression and IC50 values were converted to Ki values using the Cheng and Prusoff correction (Ki=IC50/(1+[ligand]/Kd of ligand).

Structure (SMILES)	Ki [nM]
Clc1ncc(OC[C@@H]2CCNC2)cc1Br [Example 35, 3-Bromo-2-chloro-5-(3-(R)-pyrrolidinylmethoxy)pyridine 4-methyl benzenesulfonate]	0.021

system: mice; experiment: mouse hot plate paradigm (analgesia); format: in vivo; conditions: mouse hot plate 55° C., intraperitoneal, dosed 30 minutes prior to testing, increase in tenth jump latency relative to control
Experimental: An in vivo protocol was utilized to determine the effectiveness of nicotinic acetylcholine receptor ligands as analgesic agents in the mouse hot plate paradigm. Separate groups of mice, (n=8/group) were utilized for each dose group. All drugs were administered by the intraperitoneal route of administration. Test drugs were dissolved in water to make a 6.2 mM stock solution. Animals were dosed with this solution (10 mL/kg body weight) for a 62 micromol/kg dose. Lower doses were administered similarly, following serial dilution of the stock solution in half-log increments. Animals were dosed 30 minutes prior to testing in the hot plate. The hot-plate utilized was an automated analgesia monitor (Model #AHP16AN, Omnitech Electronics, Inc. of Columbus, Ohio). The temperature of the hot plate was maintained at 55° C. and a cut-off time of 180 seconds was utilized. Latency until the tenth jump was recorded as the dependent measure. An increase in the tenth jump latency relative to the control was considered an effect.

Structure (SMILES)	minimally effective dose (MED), Dosage [µmol/kg]
Clc1ncc(OCC2CCNC2)cc1Br (stereo not drawn) [Example 25, 3-Bromo-2-chloro-5-(3-pyrrolidinylmethoxy)pyridine toluenesulfonate]	6.2
CN1CCC(COc2cnc(Cl)c(Br)c2)C1 (stereo not drawn) [Example 26, 3-Bromo-2-chloro-5-(1-methyl-3-pyrrolidinylmethoxy) pyridine toluenesulfonate]	62
Cc1ccc(S(=O)(=O)O)cc1.Cc1cncc(OCC2CCNC2)c1 (stereo not drawn) [Example 27, 5-methyl-3-(3-pyrrolidinylmethoxy)pyridine tosylate]	19
Cc1ccc(OC2CCCCNC2)cn1 (stereo not drawn) [Example 29, 3-(6-Methylpyridinyl-3-oxy)perhydroazepine dihydrochloride]	62

system: not given; experiment: not given; conditions: not given

Structure (SMILES)	melting point
CN1CC[C@H](Oc2cnc(Cl)c(C=Cc3ccncc3)c2)C1.Cl	106 to 108 °C
CC(C)(C)C=CC=Cc1cncc(O[C@H]2CCNC2)c1 (as salt: hydrochloride) [Example 7, 3-(3-(S)-Pyrrolidinyloxy-5-(5,5-dimethylhexadienyl)pyridine hydrochloride]	148 °C (dec.)
c1csc(-c2cncc(O[C@@H]3CCNC3)c2)c1 (as salt: hydrochloride) [Example 19, 3-(3-(R)-Pyrrolidinyloxy)-5-thienylpyridine hydrochloride]	201 to 203 °C
Fc1ccc(OC2CCCCNC2)cn1 (stereo not drawn) (as salt: hydrochloride) [Example 30, 3-(6-Fluoropyridinyl-3-oxy)perhydroazepine hydrochloride]	121 to 122 °C
Clc1ncc(OCC2CCNC2)cc1Br (stereo not drawn) (as salt: toluenesulfonate) [Example 25, 3-Bromo-2-chloro-5-(3-pyrrolidinylmethoxy)pyridine toluenesulfonate]	105 to 107 °C
CN1CCC(COc2ccc(Cl)nc2)C1 (stereo not drawn) (as salt: toluenesulfonate) [Example 32, 2-Chloro-5-(1-methylpyrrolidinyl-3-methoxy)pyridine p-toluenesulfonate]	75 to 77 °C
Clc1cc(OCC2CCNC2)cnc1Cl (stereo not drawn) (as salt: toluenesulfonate) [Example 33, 2,3-Dichloro-5-(pyrrolidinyl-3-methoxy)pyridine p-toluenesulfonate]	82 to 84 °C
CN1CC[C@@H](Oc2cncc(C=Cc3ccncc3)c2)C1.Cl [Example 5, 3-(1-Methyl-3-(R)-pyrrolidinyloxy)-5-(2-(4-pyridyl)ethenyl)pyridine hydrochloride]	88 to 90 °C
CCCCCCC#Cc1cncc(O[C@H]2CCNC2)c1.Cl [Example 8, 3-(3-(S)-pyrrolidinyloxy)-5-(1-octynyl)pyridine hydrochloride]	66 to 68 °C
CCCCCCC#Cc1cncc(O[C@@H]2CCN(C)C2)c1.Cl [Example 10, 3-(1-N-Methyl-3-(R)-pyrrolidinyloxy)-5-(1-octynyl)pyridine hydrochloride]	133 to 135 °C
Cl.c1ncc(-c2cncc(O[C@H]3CCNC3)c2)cn1 [Example 11, 3-(3-(S)-pyrrolidinyloxy)-5-(5-pyrimidyl)pyridine hydrochloride]	60 to 62 °C
Cl.c1ncc(-c2cncc(O[C@@H]3CCNC3)c2)cn1 [Example 13, 3-(3-(R)-Pyrrolidinyloxy)-5-(5-pyrimidinyl)pyridine hydrochloride]	67 to 69 °C
Cl.Nc1cccc(-c2cncc(O[C@H]3CCNC3)c2)c1 [Example 14, 3-(3-(S)-Pyrrolidinyloxy)-5-(3-aminophenyl)pyridine hydrochloride]	208 °C (dec.)
Cl.c1ccc(-c2cncc(O[C@H]3CCNC3)c2)cc1 [Example 15, 3-(3-(S)-Pyrrolidinyloxy)-5-phenylpyridine hydrochloride]	60 °C (dec.)
CN1CC[C@H](Oc2cncc(-c3ccccc3)c2)C1.Cl [Example 16, 3-(1-Methyl-3-(S)-pyrrolidinyloxy)-5-phenylpyridine hydrochloride]	88 to 90 °C
Cl.c1ccc(-c2cncc(O[C@@H]3CCNC3)c2)cc1 [Example 17, 3-(3-(R)-Pyrrolidinyloxy)-5-phenylpyridine hydrochloride]	60 °C (dec.)
Cl.Clc1ccc(-c2cncc(O[C@H]3CCNC3)c2)cc1 [Example 21, 3-(3-(S)-Pyrrolidinyloxy)-5-(4-chlorophenyl)pyridine hydrochloride]	65 °C (dec.)
Cl.Clc1ncc(O[C@H]2CCNC2)cc1Br [Example 22, 3-(3-(S)-Pyrrolidinyloxy)-5-bromo-6-chloropyridine hydrochloride]	178 to 180 °C
CN1CC[C@H](Oc2cnc(Cl)c(Br)c2)C1.Cl [Example 23, 3-(1-N-Methyl-3-(S)-pyrrolidinyloxy)-5-bromo-6-chloropyridine hydrochloride]	180 °C (dec.)
